Results on two compounds are retold here after US5563154A, “Tetrahydro-quinolinyl/isoquinolinyl-terminal alkylamino ethynyl alanine amino diol compounds for treatment of hypertension” (G. D. Searle & Co., priority 1995, dated 1996).

Non-standard residues stand in square brackets, D forms with d. Residues, ends and D or L forms follow the SMILES beside them. *: point of attachment. Sta = CC(C)C[C@H](N)[C@@H](O)CC(=O)O; Isovaleryl = CC(C)CC(=O)*

In one assay the target is T1, human renin (Homo sapiens, UniProt P00797).
T1 construct: purchased National Institute for Biological Standards, London
T1 sequence (P00797 67-406): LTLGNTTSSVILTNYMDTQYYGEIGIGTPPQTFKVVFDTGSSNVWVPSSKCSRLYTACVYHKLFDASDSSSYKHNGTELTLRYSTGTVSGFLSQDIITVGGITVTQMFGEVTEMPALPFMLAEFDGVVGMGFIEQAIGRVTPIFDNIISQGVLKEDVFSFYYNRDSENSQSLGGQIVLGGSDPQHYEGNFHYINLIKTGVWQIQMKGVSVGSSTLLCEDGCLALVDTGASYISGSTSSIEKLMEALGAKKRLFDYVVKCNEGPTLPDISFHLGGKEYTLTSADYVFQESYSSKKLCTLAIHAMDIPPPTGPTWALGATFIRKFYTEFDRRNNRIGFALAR
The assay can be described thus: Human Renin Inhibition in vitro (angiotensin I produced, by radioimmunoassay). It is filed as biochemical. The following applies: pH 7.4, 37° C., two hours, human plasma. On the procedure: Compounds of Formula I were evaluated as inhibitors of human renin in an in vitro assay, as follows: This human renin inhibition test has been previously described in detail [Papaioannou et al., Clinical and Experimental Hypertension, A7(9), 1243-1257 (1985)]. Human renin was obtained from the National Institute for Biological Standards, London. An incubation mixture was prepared containing the following components: in a total volume of 0.25 mL: 100 mM Tris-acetate buffer at pH 7.4, 25×10^-6 Goldblatt units of renin, 0.05 mL of plasma from human volunteers taking oral contraceptives, 6.0 mM Na-EDTA, 2.4 mM phenylmethyl sulfonyl fluoride, 1.5 mM 8-hydroxyquinoline, 0.4 mg/mL bovine serum albumin (BSA), and 0.024 mg/mL neomycin sulfate. This mixture was incubated for two hours at 37° C. in the presence or absence of renin inhibitors. The produced angiotensin I was determined by radioimmunoassay (New England Nuclear kit). Test compounds to be assayed were dissolved in DMSO and diluted with 100mM Tris-acetate buffer at pH 7.4 containing 0.5% BSA to the appropriate concentration. The final concentration of organic solvent in the reaction mixture was less than 1%. Control incubations at 37° C. were used to correct for effects of organic solvent on renin activity.

For another assay, the system named is hog renin. The note with it: after the injection of hog renin into nephrectomized rats; cited from earlier work.
A further assay concerns pepsin. The note with it: cited from earlier work.
The subject of a further assay is cathepsin D. The note with it: cited from earlier work.
The next assay relates to renin. The following applies: cited from earlier work.

As a reminder, the IC50 is the concentration that gives 50% inhibition. Read a high IC50 as lower potency. On to `C#CC[C@H](NC(=O)[C@@H](CC(=O)N(C)CCc1ccccn1)Cc1ccccc1)C(=O)N[C@@H](CC1CCCCC1)[C@@H](O)[C@@H](O)CC(C)C` (relative stereo) [Example 1, N^1-[1R*-[[[1S, 1R*- (cyclohexylmethyl)-2S*, 3R*-dihydroxy-5-methylhexyl]amino]carbonyl]-3-butynyl]-N^4-methyl-2S*-(phenylmethyl)-N^4-[2-(2-pyridinyl)ethyl]butanediamide], for which 0.15 nM corresponded to half-maximal inhibition against human renin (IC50).

In the case of `CC(C)CC(=O)N[C@H](C(=O)N[C@H](C(=O)N[C@@H](CC(C)C)[C@@H](O)CC(=O)N[C@@H](C)C(=O)N[C@@H](CC(C)C)[C@@H](O)CC(=O)O)C(C)C)C(C)C` [pepstatin] (Isovaleryl-VV[Sta]A[Sta]-OH), the “reduce blood pressure in vivo” value in the assay on hog renin was “reduce blood pressure in vivo”. Besides, the inhibitor of pepsin result in the assay with pepsin is “inhibitor”. The “inhibitor of cathepsin D” value with cathepsin D was “inhibitor”. Besides, the inhibitor of renin result in the assay with renin was “inhibitor”.
